Starred links: 1 amine or outer side, 2 acyl side, 3 side chain; linkers in the order of their positions; H or OH if unused. Positions of bridges follow the written chain, without caps; N, C: chain ends. Residues, ends and D or L forms follow the SMILES beside them. Groups on a side chain read outwards from the residue. *: point of attachment. C20 diacid = O=C(O)CCCCCCCCCCCCCCCCCCC(=O)*; γGlu = O=C(O)[C@H](CCC(=O)[*:2])N[*:1]
Columns and labels:
food intake = experiment: Assay (I) efficacy testing on appetite (food intake), ad libitum fed rat model; type: in vivo, Sprague Dawley (SD) rats; details: 3 nmol/kg
From the text: In the following examples reference is made to the following Assays: • Assay (I)— Experimental protocol for efficacy testing on appetite using an ad libitum fed rat model • ASSAY (II)a—Functional assay—Human calcitonin and amylin receptor assay • ASSAY (II)b—Functional assay—Rat calcitonin and rat amylin receptor assays • ASSAY (III)—ThT fibrillation assays for the assessment of physical stability of protein formulations • ASSAY (IV)—Determination of solubility • ASSAY (V)—Determination of binding to the human amylin receptor • ASSAY (VI)—Determination of the binding to the rat amylin receptor • ASSAY (VII)—Determination of binding to the human calcitonin receptor • ASSAY (VIII)—Determination of binding to the rat calcitonin receptor • ASSAY (IX)—pK—Determination of T % in mini-pig • ASSAY (X)—pK—Determination of T % in rat ASSAY (I)—Experimental Protocol for Efficacy Testing on Appetite Using an Ad Libitum Fed Rat Model
Sprague Dawley (SD) rats from Taconic Europe, Denmark are used for the experiments. The rats have a body weight 200-250 g at the start of experiment. The rats arrive at least 10-14 days before start of experiment to allow acclimatization to experimental settings. During this period the animals are handled at least 2 times. After arrival rats are housed individually for one week in a reversed light/dark phase (meaning that lights are off during daytime and on during nighttime) […]. Since rats are normally active and eat their major part of their daily food intake during the dark period, rats are dosed in the morning right before lights are turned off. This set-up results in the lowest data variation and highest test sensitivity. The experiment is conducted in the rats' home cages and rats have free access to food and water throughout the acclimatization period and the experiment period. Each dose of derivative is tested in a group of 5-8 rats. A vehicle group of 6-8 rats is included in each set of testing. Rats are dosed once according to body weight with a 0.01-3 mg/kg solution administered intraperitoneally (ip), orally (po) or subcutaneously (sc). The time of dosing is recorded for each group. After dosing, the rats are returned to their home cages, where they then have access to food and water. The food consumption is recorded individually continuously by on-line registration or manually every hour for 7 hours, and then after 24 h and sometimes 48 h. At the end of the experimental session, the animals are euthanised.
The individual data are recorded in Microsoft excel sheets. Outliers are excluded after applying the Grubbs statistical evaluation test for outliers, and the result is presented graphically using the GraphPad Prism program.

[1] = Assay (III) ThT fibrillation assay for physical stability; type: physicochemical
In short: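 Freshly prepared formulations, pH-adjusted, with 1 μM ThT; four or eight replicates incubated at 37 °C under 960 rpm orbital shaking. Fluorescence (ex 444/em 485 nm) read every 20 min; […]. Peptide concentration measured by RP-HPLC before and after the run.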

SMILES	Food intake reduction 0-24 h 3 nmol/kg (%) (food intake)	Food intake reduction 24-48 h 3 nmol/kg (%) (food intake)	ThT pH 4.0 lag time ([1]; Table 8)	ThT pH 4.0 lag time ([1]; Table 9)	ThT pH 4.0 lag time ([1]; ThT fibrillation assay)	ThT pH 4.0 lag time (h) ([1]; ThT fibrillation assay)
CC[C@H](C)[C@H](NC(=O)[C@@H]1CCCN1C(=O)CNC(=O)[C@H](Cc1ccccc1)NC(=O)[C@H](CO)NC(=O)[C@H](CO)NC(=O)[C@H](CO)NC(=O)[C@H](CO)NC(=O)[C@H](CCCNC(=N)N)NC(=O)[C@H](Cc1c[nH]cn1)NC(=O)[C@H](CC(C)C)NC(=O)[C@H](Cc1ccccc1)NC(=O)[C@H](CCC(=O)O)NC(=O)[C@H](C)NC(=O)[C@H](CC(C)C)NC(=O)[C@H](CCCNC(=N)N)NC(=O)[C@H](CCC(N)=O)NC(=O)[C@@H](NC(=O)[C@H](C)NC(=O)[C@@H]1CSSC[C@H](NC(=O)[C@H](Cc2c[nH]cn2)NC(=O)CC[C@H](NC(=O)CCCCCCCCCCCCCCCCCCC(=O)O)C(=O)O)C(=O)N[C@@H](CC(N)=O)C(=O)N[C@@H]([C@@H](C)O)C(=O)N[C@@H](C)C(=O)N[C@@H]([C@@H](C)O)C(=O)N1)[C@@H](C)O)C(=O)N[C@@H](CC(C)C)C(=O)N1CCC[C@H]1C(=O)N1CCC[C@H]1C(=O)N[C@H](C(=O)N[C@@H](CC(=O)O)C(=O)N[C@H](C(=O)NCC(=O)N[C@@H](CO)C(=O)N[C@@H](CC(=O)O)C(=O)N[C@H](C(=O)N[C@@H](Cc1ccc(O)cc1)C(N)=O)[C@@H](C)O)C(C)C)[C@@H](C)O [Example 9, N-alpha-[(S)-4-Carboxy-4-(19-carboxynonadecanoylamino)butyryl]-[His1,Glu14,His17,Arg18,Ser21,Ser22,Asp31,Asp35]-pramlintide] ({C20 diacid-γGlu}-HCNTATCATQRLAEFLHRSSSSFGPILPPTDVGSDTY-NH2; disulfide 2-7 (inferred); C-terminus assumed)	39%	32%	>45 h	>45 h	>45 h	>45 h
CC[C@H](C)[C@H](NC(=O)[C@@H]1CCCN1C(=O)CNC(=O)[C@H](Cc1ccccc1)NC(=O)[C@H](CC(N)=O)NC(=O)[C@H](CC(N)=O)NC(=O)[C@H](CO)NC(=O)[C@H](CO)NC(=O)[C@H](Cc1c[nH]cn1)NC(=O)[C@H](Cc1c[nH]cn1)NC(=O)[C@H](CC(C)C)NC(=O)[C@H](Cc1ccccc1)NC(=O)[C@H](CCC(=O)O)NC(=O)[C@H](C)NC(=O)[C@H](CC(C)C)NC(=O)[C@H](CCCNC(=N)N)NC(=O)[C@H](CCC(N)=O)NC(=O)[C@@H](NC(=O)[C@H](C)NC(=O)[C@@H]1CSSC[C@H](NC(=O)[C@H](CCCCN)NC(=O)CC[C@H](NC(=O)CCCCCCCCCCCCCCCCCCC(=O)O)C(=O)O)C(=O)N[C@@H](CC(N)=O)C(=O)N[C@@H]([C@@H](C)O)C(=O)N[C@@H](C)C(=O)N[C@@H]([C@@H](C)O)C(=O)N1)[C@@H](C)O)C(=O)N[C@@H](CC(C)C)C(=O)N1CCC[C@H]1C(=O)N1CCC[C@H]1C(=O)N[C@H](C(=O)N[C@@H](CC(N)=O)C(=O)N[C@H](C(=O)NCC(=O)N[C@@H](CO)C(=O)N[C@@H](CC(N)=O)C(=O)N[C@H](C(=O)N1CCC[C@H]1C(N)=O)[C@@H](C)O)C(C)C)[C@@H](C)O [Example 52, N-alpha-[(S)-4-Carboxy-4-(19-carboxynonadecanoylamino)butyryl]-[Glu14,His17,Pro37]-pramlintide] ({C20 diacid-γGlu}-KCNTATCATQRLAEFLHHSSNNFGPILPPTNVGSNTP-NH2; disulfide 2-7 (inferred); C-terminus assumed)	62%	74%	>45 h	>45 h	>45 h	>45 h
CC[C@H](C)[C@H](NC(=O)[C@@H]1CCCN1C(=O)CNC(=O)[C@H](Cc1ccccc1)NC(=O)[C@H](CC(N)=O)NC(=O)[C@H](CC(N)=O)NC(=O)[C@H](CO)NC(=O)[C@H](CO)NC(=O)[C@H](Cc1c[nH]cn1)NC(=O)[C@H](CCCNC(=N)N)NC(=O)[C@H](CC(C)C)NC(=O)[C@H](Cc1ccccc1)NC(=O)[C@H](CCC(=O)O)NC(=O)[C@H](C)NC(=O)[C@H](CC(C)C)NC(=O)[C@H](CCCNC(=N)N)NC(=O)[C@H](CCC(N)=O)NC(=O)[C@@H](NC(=O)[C@H](C)NC(=O)[C@@H]1CSSC[C@H](NC(=O)[C@H](CCCCN)NC(=O)CC[C@H](NC(=O)CCCCCCCCCCCCCCCCCCC(=O)O)C(=O)O)C(=O)N[C@@H](CC(N)=O)C(=O)N[C@@H]([C@@H](C)O)C(=O)N[C@@H](C)C(=O)N[C@@H]([C@@H](C)O)C(=O)N1)[C@@H](C)O)C(=O)N[C@@H](CC(C)C)C(=O)N1CCC[C@H]1C(=O)N1CCC[C@H]1C(=O)N[C@H](C(=O)N[C@@H](CC(N)=O)C(=O)N[C@H](C(=O)NCC(=O)N[C@@H](CO)C(=O)N[C@@H](Cc1c[nH]cn1)C(=O)N[C@H](C(=O)N[C@@H](Cc1ccc(O)cc1)C(N)=O)[C@@H](C)O)C(C)C)[C@@H](C)O [Example 57, N-alpha-[(S)-4-Carboxy-4-(19-carboxynonadecanoylamino)butyryl]-[Glu14,Arg17,His35]-pramlintide] ({C20 diacid-γGlu}-KCNTATCATQRLAEFLRHSSNNFGPILPPTNVGSHTY-NH2; disulfide 2-7 (inferred); C-terminus assumed)	17%	0%	>45 h	>45 h	>45 h	>45 h
CC[C@H](C)[C@H](NC(=O)[C@@H]1CCCN1C(=O)CNC(=O)[C@H](Cc1ccccc1)NC(=O)[C@H](CC(N)=O)NC(=O)[C@H](CC(N)=O)NC(=O)[C@H](CO)NC(=O)[C@H](CO)NC(=O)[C@H](Cc1c[nH]cn1)NC(=O)[C@H](Cc1c[nH]cn1)NC(=O)[C@H](CC(C)C)NC(=O)[C@H](Cc1ccccc1)NC(=O)[C@H](CCC(=O)O)NC(=O)[C@H](C)NC(=O)[C@H](CC(C)C)NC(=O)[C@H](CCCNC(=N)N)NC(=O)[C@H](CCC(N)=O)NC(=O)[C@@H](NC(=O)[C@H](C)NC(=O)[C@@H]1CSSC[C@H](NC(=O)[C@H](CCC(=O)O)NC(=O)CC[C@H](NC(=O)CCCCCCCCCCCCCCCCCCC(=O)O)C(=O)O)C(=O)N[C@@H](CC(N)=O)C(=O)N[C@@H]([C@@H](C)O)C(=O)N[C@@H](C)C(=O)N[C@@H]([C@@H](C)O)C(=O)N1)[C@@H](C)O)C(=O)N[C@@H](CC(C)C)C(=O)N1CCC[C@H]1C(=O)N1CCC[C@H]1C(=O)N[C@H](C(=O)N[C@@H](CC(N)=O)C(=O)N[C@H](C(=O)NCC(=O)N[C@@H](CO)C(=O)N[C@@H](CC(N)=O)C(=O)N[C@H](C(=O)N[C@@H](Cc1ccc(O)cc1)C(N)=O)[C@@H](C)O)C(C)C)[C@@H](C)O [Example 29, N-alpha-[(S)-4-Carboxy-4-(19-carboxynonadecanoylamino)butyryl]-[Glu1,Glu14,His17]-pramlintide] ({C20 diacid-γGlu}-ECNTATCATQRLAEFLHHSSNNFGPILPPTNVGSNTY-NH2; disulfide 2-7 (inferred))	15%	5%	–	–	–	3 h
CC[C@H](C)[C@H](NC(=O)[C@@H]1CCCN1C(=O)CNC(=O)[C@H](Cc1ccccc1)NC(=O)[C@H](CC(N)=O)NC(=O)[C@H](CC(N)=O)NC(=O)[C@H](CO)NC(=O)[C@H](CO)NC(=O)[C@H](Cc1c[nH]cn1)NC(=O)[C@H](Cc1c[nH]cn1)NC(=O)[C@H](CC(C)C)NC(=O)[C@H](Cc1ccccc1)NC(=O)[C@H](CCC(=O)O)NC(=O)[C@H](C)NC(=O)[C@H](CC(C)C)NC(=O)[C@H](CCCNC(=N)N)NC(=O)[C@H](CCC(N)=O)NC(=O)[C@@H](NC(=O)[C@H](C)NC(=O)[C@@H]1CSSC[C@H](NC(=O)[C@@H](N)CCCCNC(=O)CC[C@H](NC(=O)CCCCCCCCCCCCCCCCCCC(=O)O)C(=O)O)C(=O)N[C@@H](CC(N)=O)C(=O)N[C@@H]([C@@H](C)O)C(=O)N[C@@H](C)C(=O)N[C@@H]([C@@H](C)O)C(=O)N1)[C@@H](C)O)C(=O)N[C@@H](CC(C)C)C(=O)N1CCC[C@H]1C(=O)N1CCC[C@H]1C(=O)N[C@H](C(=O)N[C@@H](CC(N)=O)C(=O)N[C@H](C(=O)NCC(=O)N[C@@H](CO)C(=O)N[C@@H](Cc1c[nH]cn1)C(=O)N[C@H](C(=O)N[C@@H](Cc1ccc(O)cc1)C(N)=O)[C@@H](C)O)C(C)C)[C@@H](C)O [Example 87, N-epsilon1-[(S)-4-Carboxy-4-(19-carboxynonadecanoylamino)butyryl]-[Glu14,His17,His35]-pramlintide] (H-K([γGlu-C20 diacid])CNTATCATQRLAEFLHHSSNNFGPILPPTNVGSHTY-NH2; disulfide 2-7 (inferred))	66%	47%	25 h	–	25 h	25 h

From US8722849B2, “Polypeptides” (Novo Nordisk A/S, priority 2011, dated 2014)
